Target: ROCK2 (Homo sapiens, UniProt O75116)
Assay: ROCK2 kinase inhibition assay (LABCHIP 3000 Reader, FITC peptide substrate);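 further: rho kinase reaction read by separating phosphorylated from unphosphorylated peptide on chip, with inhibition of kinase activity computed per concentration across a dose-response series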

ROCK2, sequence (O75116 whole entry, species assumed): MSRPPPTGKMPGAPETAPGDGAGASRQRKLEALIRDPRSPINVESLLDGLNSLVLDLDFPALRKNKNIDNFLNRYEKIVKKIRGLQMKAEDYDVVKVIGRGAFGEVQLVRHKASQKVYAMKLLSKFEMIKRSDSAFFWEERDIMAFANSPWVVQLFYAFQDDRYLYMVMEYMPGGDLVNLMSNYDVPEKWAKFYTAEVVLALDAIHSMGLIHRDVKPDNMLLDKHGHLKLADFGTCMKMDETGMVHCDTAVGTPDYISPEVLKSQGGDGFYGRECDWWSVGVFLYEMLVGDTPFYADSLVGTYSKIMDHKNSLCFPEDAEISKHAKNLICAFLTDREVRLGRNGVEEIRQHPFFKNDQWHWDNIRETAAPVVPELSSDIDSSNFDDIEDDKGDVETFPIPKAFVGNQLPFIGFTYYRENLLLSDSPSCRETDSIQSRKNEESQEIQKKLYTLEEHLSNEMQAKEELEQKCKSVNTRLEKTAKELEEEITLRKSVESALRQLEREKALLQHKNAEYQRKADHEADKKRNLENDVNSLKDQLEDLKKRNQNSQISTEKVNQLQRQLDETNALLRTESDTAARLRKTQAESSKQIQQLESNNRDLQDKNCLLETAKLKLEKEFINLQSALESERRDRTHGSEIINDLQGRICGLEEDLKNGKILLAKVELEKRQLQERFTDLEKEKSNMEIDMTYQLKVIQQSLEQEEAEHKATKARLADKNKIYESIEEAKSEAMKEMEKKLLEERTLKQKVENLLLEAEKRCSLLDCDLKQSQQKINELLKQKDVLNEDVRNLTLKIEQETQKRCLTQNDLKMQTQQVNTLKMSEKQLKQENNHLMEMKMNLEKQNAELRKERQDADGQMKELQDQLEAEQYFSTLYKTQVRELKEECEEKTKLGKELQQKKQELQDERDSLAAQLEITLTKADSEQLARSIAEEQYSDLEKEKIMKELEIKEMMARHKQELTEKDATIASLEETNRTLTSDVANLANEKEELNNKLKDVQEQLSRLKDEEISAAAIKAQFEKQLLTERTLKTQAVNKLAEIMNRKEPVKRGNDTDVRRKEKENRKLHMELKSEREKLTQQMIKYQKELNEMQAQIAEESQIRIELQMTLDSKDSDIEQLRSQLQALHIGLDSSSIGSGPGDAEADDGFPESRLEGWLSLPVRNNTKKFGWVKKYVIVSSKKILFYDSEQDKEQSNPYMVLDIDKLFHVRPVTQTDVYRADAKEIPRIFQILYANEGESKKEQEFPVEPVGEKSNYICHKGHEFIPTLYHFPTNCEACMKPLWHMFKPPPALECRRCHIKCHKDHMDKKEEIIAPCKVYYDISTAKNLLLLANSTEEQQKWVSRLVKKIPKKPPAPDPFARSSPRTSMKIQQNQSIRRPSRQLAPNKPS

Row | IC50 [nM] | Compound
1 | 50 to 250 | CC(C)(O)COc1ccc2c(C(=O)NC3CC4(C3)CC(Oc3ncncc3C(N)=O)C4)cnn2c1 (stereo not shown) [Example 8, N-(6-((5-carbamoylpyrimidin-4-yl)oxy)spiro[3.3]heptan-2-yl)-6-(2-hydroxy-2-methylpropoxy)pyrazolo[1,5-a]pyridine-3-carboxamide]
2 | 5 to 50 | NC(=O)c1cccnc1OC1CC2(CC(NC(=O)c3cnn4cc(OC(CF)CF)ccc34)C2)C1 (stereo not shown) [Example 9, N-(6-((3-carbamoylpyridin-2-yl)oxy)spiro[3.3]heptan-2-yl)-6-((1,3-difluoropropan-2-yl)oxy)pyrazolo[1,5-a]pyridine-3-carboxamide]
3 | 5 to 50 | NC(=O)c1cccnc1OC1CC2(CC(NC(=O)c3cnn4cc(OCCC(F)(F)F)ccc34)C2)C1 (stereo not shown) [Example 10, N-(6-((3-carbamoylpyridin-2-yl)oxy)spiro[3.3]heptan-2-yl)-6-(3,3,3-trifluoropropoxy)pyrazolo[1,5-a]pyridine-3-carboxamide]
4 | 5 to 50 | NC(=O)c1cccnc1OC1CC2(CC(NC(=O)c3cnn4cc(OC5CCOCC5)ccc34)C2)C1 (stereo not shown) [Example 11, N-(6-((3-carbamoylpyridin-2-yl)oxy)spiro[3.3]heptan-2-yl)-6-((tetrahydro-2H-pyran-4-yl)oxy)pyrazolo[1,5-a]pyridine-3-carboxamide]
5 | 50 to 250 | NC(=O)c1cccnc1OC1CC2(CC(NC(=O)N3CCc4ccccc43)C2)C1 (stereo not shown) [Example 12, N-(6-((3-carbamoylpyridin-2-yl)oxy)spiro[3.3]heptan-2-yl)indoline-1-carboxamide]
6 | 50 to 250 | N#Cc1ccc2c(c1)CN(C(=O)NC1CC3(C1)CC(Oc1ncccc1C(N)=O)C3)C2 (stereo not shown) [Example 13, N-(6-((3-carbamoylpyridin-2-yl)oxy)spiro[3.3]heptan-2-yl)-5-cyanoisoindoline-2-carboxamide]
7 | 250 to 2500 | NC(=O)c1ccccc1OC1CC2(CC(NC(=O)OCc3ccccc3)C2)C1 [Example 14, benzyl ((aR)-6-(2-carbamoylphenoxy)spiro[3.3]heptan-2-yl)carbamate]
8 | < 5 | [H][C@]1(Oc2ccccc2C(N)=O)C[C@@]2(C[C@H](NC(=O)c3cnn4c(C5CC5)c(OCC(C)(C)O)ccc34)C2)C1 (stereo partly drawn) [Example 15, N-((aR)-6-(2-carbamoylphenoxy)spiro[3.3]heptan-2-yl)-7-cyclopropyl-6-(2-hydroxy-2-methylpropoxy)pyrazolo[1,5-a]pyridine-3-carboxamide]
9 | < 5 | [H][C@]1(Oc2ccccc2C(N)=O)C[C@@]2(C[C@H](NC(=O)c3cnn4cc(OCC(C)(C)O)ccc34)C2)C1 (stereo partly drawn) [Example 16, N-((aR)-6-(2-carbamoylphenoxy)spiro[3.3]heptan-2-yl)-6-(2-hydroxy-2-methylpropoxy)pyrazolo[1,5-a]pyridine-3-carboxamide]
10 | 50 to 250 | COc1ccc2c(c1)CCN2C(=O)NC1CC2(C1)CC(Oc1ncccc1C(N)=O)C2 [Example 17, N-((aR)-6-((3-carbamoylpyridin-2-yl)oxy)spiro[3.3]heptan-2-yl)-5-methoxyindoline-1-carboxamide]
11 | < 5 | NC(=O)c1ccccc1O[C@H]1CC2(C[C@H](NC(=O)c3cnc4cc(OCCC(F)(F)F)ccn34)C2)C1 (stereo partly drawn) [Example 18, N-[(aR)-6-(2-carbamoylphenoxy)spiro[3.3]heptan-2-yl]-7-(3,3,3-trifluoropropoxy)imidazo [1,2-a]pyridine-3-carboxamdie]
12 | < 5 | CC(C)(O)COc1ccc2c(C(=O)N[C@H]3CC4(C3)C[C@H](Oc3ccccc3C(N)=O)C4)cnn2c1CCC(F)(F)F (stereo partly drawn) [Example 19, N-[(aR)-6-(2-carbamoylphenoxy)spiro[3.3]heptan-2-yl]-6-(2-hydroxy-2-methylpropoxy)-7-(3,3,3-trifluoropropyl)pyrazolo [1,5-a]pyridine-3-carboxamide]
13 | 5 to 50 | NC(=O)c1ccccc1O[C@H]1CC2(C[C@H](NC(=O)c3cnn4ccc(OCCN5CCOCC5)cc34)C2)C1 (stereo partly drawn) [Example 20, N-[(aR)-6-(2-carbamoylphenoxy)spiro[3.3]heptan-2-yl]-5-[2-(morpholin-4-yl)ethoxy]pyrazolo[1,5-a]pyridine-3-carboxamide]
14 | 5 to 50 | NC(=O)c1ccccc1O[C@H]1CC2(C[C@H](NC(=O)c3cnn4cc(OCCN5CCCC5)ccc34)C2)C1 (stereo partly drawn) [Example 21, N-[(aR)-6-(2-carbamoylphenoxy)spiro[3.3]heptan-2-yl]-6-[2-(pyrrolidin-1-yl)ethoxy]pyrazolo[1,5-a]pyridine-3-carboxamide]
15 | 5 to 50 | NC(=O)c1ccccc1O[C@H]1CC2(C[C@H](NC(=O)c3cnn4cc(OCC(F)F)ccc34)C2)C1 (stereo partly drawn) [Example 22, N-[(aR)-6-(2-carbamoylphenoxy)spiro[3.3]heptan-2-yl]-6-(2,2-difluoroethoxy)pyrazolo [1,5-a]pyridine-3-carboxamide]
16 | < 5 | NC(=O)c1ccccc1O[C@H]1CC2(C[C@H](NC(=O)c3cnn4cc(N5CCC(F)(F)C5)ccc34)C2)C1 (stereo partly drawn) [Example 23, N-[(aR)-6-(2-carbamoylphenoxy)spiro[3.3]heptan-2-yl]-6-(3,3-difluoropyrrolidin-1-yl)pyrazolo[1,5-a]pyridine-3-carboxamide]

Row | IC50 [nM] | Compound
17 | 5 to 50 | NC(=O)c1ccccc1O[C@H]1CC2(C[C@H](NC(=O)c3cnn4cc(OC(F)F)ccc34)C2)C1 (stereo partly drawn) [Example 24, N-[(aR)-6-(2-carbamoylphenoxy)spiro[3.3]heptan-2-yl]-6-(difluoromethoxy)pyrazolo [1,5-a]pyridine-3-carboxamide]
18 | < 5 | NC(=O)c1ccccc1O[C@H]1CC2(C[C@H](NC(=O)c3cnc4cc(N5CCC(F)(F)C5)ccn34)C2)C1 (stereo partly drawn) [Example 25, N-[(aR)-6-(2-carbamoylphenoxy)spiro[3.3]heptan-2-yl)-7-(3,3-difluoropyrrolidin-1-yl)imidazo[1,2-a]pyridine-3-carboxamide]
19 | 5 to 50 | NC(=O)c1ccccc1O[C@H]1CC2(C[C@H](NC(=O)c3cnc4cc(OCCN5CCCC5)ccn34)C2)C1 (stereo partly drawn) [Example 26, N-((aR)-6-(2-carbamoylphenoxy)spiro[3.3]heptan-2-yl)-7-(2-(pyrrolidin-1-yl)ethoxy)imidazo[1,2-a]pyridine-3-carboxamdie]
20 | 5 to 50 | COC(=O)N1CC(Oc2ccc3c(C(=O)N[C@H]4CC5(C4)C[C@H](Oc4ccccc4C(N)=O)C5)cnn3c2)C1 (stereo partly drawn) [Example 27, methyl 3-((3-(((aR)-6-(2-carbamoylphenoxy)spiro[3.3]heptan-2-yl)carbamoyl)pyrazolo[1,5-a]pyridin-6-yl)oxy)azetidine-1-carboxylate]
21 | < 5 | NC(=O)c1ccccc1O[C@H]1CC2(C[C@H](NC(=O)c3cnn4cc(OC5CCS(=O)(=O)CC5)ccc34)C2)C1 (stereo partly drawn) [Example 28, N-[(aR)-6-(2-carbamoylphenoxy)spiro [3.3]heptan-2-yl]-6-[(1,1-dioxo-1λ^6-thian-4-yl)oxy]pyrazolo [1,5-a]pyridine-3-carboxamide]
22 | 5 to 50 | NC(=O)c1ccccc1O[C@H]1CC2(C[C@H](NC(=O)c3cnc4cc(N5CCOCC5)ccn34)C2)C1 (stereo partly drawn) [Example 29, N-[(aR)-6-(2-carbamoylphenoxy)spiro [3.3]heptan-2-yl]-7-(morpholin-4-yl)imidazo[1,2-a]pyridine-3-carboxamide]
23 | < 5 | CS(=O)(=O)CCCOc1ccc2c(C(=O)NC3CC4(C3)CC(Oc3ccccc3C(N)=O)C4)cnn2c1C1CC1 [Example 30, N-[(aR)-6-(2-carbamoylphenoxy)spiro [3.3]heptan-2-yl]-7-cyclopropyl-6-(3-methanesulfonylpropoxy) pyrazolo[1,5-a] pyridine-3-carboxamide]
24 | 5 to 50 | NC(=O)c1ccccc1O[C@H]1CC2(C[C@H](NC(=O)c3cnn4c(C5CC5)c(OCCO)ccc34)C2)C1 (stereo partly drawn) [Example 31, N-[(aR)-6-(2-carbamoylphenoxy)spiro [3.3]heptan-2-yl]-7-cyclopropyl-6-(2-hydroxyethoxy)pyrazolo[1,5-a]pyridine-3-carboxamide]
25 | < 5 | NC(=O)c1ccccc1OC1CC2(CC(NC(=O)c3cnn4c(C5CC5)c(OCCC(F)(F)F)ccc34)C2)C1 [Example 32, N-[(aR)-6-(2-carbamoylphenoxy)spiro [3.3]heptan-2-yl]-7-cyclopropyl-6-(3,3,3-trifluoropropoxy)pyrazolo [1,5-a]pyridine-3-carboxamide]
26 | < 5 | NC(=O)c1ccccc1O[C@H]1CC2(C[C@H](NC(=O)c3cnn4cc(OCCC(F)(F)F)ccc34)C2)C1 (stereo partly drawn) [Example 33, N-[(aR)-6-(2-carbamoylphenoxy)spiro [3.3]heptan-2-yl]-6-(3,3,3-trifluoropropoxy) pyrazolo[1,5-a]pyridine-3-carboxamide]
27 | 5 to 50 | Cn1cc(-c2ccn3c(C(=O)N[C@H]4CC5(C4)C[C@H](Oc4ccccc4C(N)=O)C5)cnc3c2)cn1 (stereo partly drawn) [Example 34, N-[(aR)-6-(2-carbamoylphenoxy)spiro [3.3]heptan-2-yl]-7-(1-methyl-1H-pyrazol-4-yl)imidazo [1,2-a]pyridine-3-carboxamide]
28 | < 5 | NC(=O)c1ccccc1OC1CC2(CC(NC(=O)c3cnn4c(C5CC5)c(OC5CCS(=O)(=O)CC5)ccc34)C2)C1 [Example 35, N-[(aR)-6-(2-carbamoylphenoxy)spiro [3.3]heptan-2-yl]-7-cyclopropyl-6-[(1,1-dioxo-1λ^6-thian-4-yl)oxy]pyrazolo[1,5-a] pyridine-3-carboxamide]
29 | 5 to 50 | CN1CCN(c2ccn3c(C(=O)N[C@H]4CC5(C4)C[C@H](Oc4ccccc4C(N)=O)C5)cnc3c2)CC1 (stereo partly drawn) [Example 36, N-[(aR)-6-(2-carbamoylphenoxy)spiro [3.3]heptan-2-yl]-7-(4-methylpiperazin-1-yl)imidazo[1,2-a] pyridine-3-carboxamdie]
30 | 50 to 250 | NC(=O)c1ccccc1O[C@H]1CC2(C[C@H](NC(=O)N3CCc4ccccc43)C2)C1 (stereo partly drawn) [Example 37, N-((aR)-6-(2-carbamoylphenoxy)spiro[3.3]heptan-2-yl)indoline-1-carboxamide]
31 | 5 to 50 | COc1ccc2c(c1)CCN2C(=O)N[C@H]1CC2(C1)C[C@H](Oc1ccccc1C(N)=O)C2 (stereo partly drawn) [Example 38, N-[(aR)-6-(2-carbamoylphenoxy)spiro [3.3]heptan-2-yl]-5-methoxy-2,3-dihydro-1H-indole-1-carboxamide]
